Data as given in PubChem BioAssay AID330 (DTP/NCI, 2004).
Inconclusive results and toxic doses are left out. The calls were made as follows: active = survival T/C of 150% or more; inactive = T/C below 125% in these data.

Tested on: P388 leukemia ip, CD2F1 mice, survival T/C
Test: NCI In Vivo Anticancer Drug Screen. Data for tumor model P388 Leukemia (intraperitoneal) in CD2F1 (CDF1) mice
Conditions: endpoint: median survival time, higher = longer survival
How it was run: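 Mice carrying the transplanted tumor received test compound or vehicle. Survival was recorded in each group, and the value is the treated-group measurement divided by that of the vehicle-treated control group.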

[1] = dose: 100.0 mg/kg/injection, schedule: Q01DX001 (ip), vehicle: saline
[2] = dose: 200.0 mg/kg/injection, schedule: Q01DX001 (ip), vehicle: saline
[3] = dose: 25.0 mg/kg/injection, schedule: Q01DX005 (ip), vehicle: saline
[4] = dose: 50.0 mg/kg/injection, schedule: Q01DX005 (ip), vehicle: saline
[5] = dose: 100.0 mg/kg/injection, schedule: Q01DX005 (ip), vehicle: saline
[6] = dose: 200.0 mg/kg/injection, schedule: Q01DX005 (ip), vehicle: saline
[7] = dose: 50.0 mg/kg/injection, schedule: Q01DX009 (ip), vehicle: Klucel (hydroxypropylcellulose) (HPC)
[8] = dose: 100.0 mg/kg/injection, schedule: Q01DX009 (ip), vehicle: Klucel (hydroxypropylcellulose) (HPC)
[9] = dose: 200.0 mg/kg/injection, schedule: Q01DX009 (ip), vehicle: Klucel (hydroxypropylcellulose) (HPC)
[10] = dose: 50.0 mg/kg/injection, schedule: Q01DX005 (ip), vehicle: saline with Tween-80
[11] = dose: 100.0 mg/kg/injection, schedule: Q01DX005 (ip), vehicle: saline with Tween-80
[12] = dose: 100.0 mg/kg/injection, schedule: Q04DX002 (ip), vehicle: Klucel (hydroxypropylcellulose) (HPC)
[13] = dose: 200.0 mg/kg/injection, schedule: Q04DX002 (ip), vehicle: Klucel (hydroxypropylcellulose) (HPC)
[14] = dose: 400.0 mg/kg/injection, schedule: Q04DX002 (ip), vehicle: Klucel (hydroxypropylcellulose) (HPC)
[15] = dose: 100.0 mg/kg/injection, schedule: Q01DX009 (ip), vehicle: saline with Tween-80
[16] = dose: 200.0 mg/kg/injection, schedule: Q01DX009 (ip), vehicle: saline with Tween-80
[17] = dose: 200.0 mg/kg/injection, schedule: Q01DX005 (ip), vehicle: saline with Tween-80
[18] = dose: 60.0 mg/kg/injection, schedule: Q01DX005 (ip), vehicle: saline with Tween-80
[19] = dose: 120.0 mg/kg/injection, schedule: Q01DX005 (ip), vehicle: saline with Tween-80
[20] = dose: 240.0 mg/kg/injection, schedule: Q01DX005 (ip), vehicle: saline with Tween-80
[21] = dose: 50.0 mg/kg/injection, schedule: Q01DX009 (ip), vehicle: saline with Tween-80

Measured: T/C

C1=NC(c2ccccc2)C(/C=C/c2ccccc2)N=C1c1ccccc1 (centres undefined)
inactive: [1] 96 % of control | [2] 93 % of control | dose: 400.0 mg/kg/injection, schedule: Q01DX001 (ip), vehicle: saline 86 % of control

CCCC(=O)NC
inactive: [3] 102 % of control | [4] 99 % of control | [5] 110 % of control | [6] 104 % of control | dose: 400.0 mg/kg/injection, schedule: Q01DX005 (ip), vehicle: saline 99 % of control

C=C(COCNc1ccc(Cl)cc1Cl)C(=O)O
inactive: [7] 105 % of control | [8] 89 % of control | [9] 99 % of control

O=C1C(C(=Nc2ccc3ccccc3c2)c2ccccc2)=C(O)c2ccccc21
inactive: dose: 25.0 mg/kg/injection, schedule: Q04DX002 (ip), vehicle: saline with Tween-80 100 % of control | dose: 50.0 mg/kg/injection, schedule: Q04DX002 (ip), vehicle: saline with Tween-80 102 % of control | dose: 100.0 mg/kg/injection, schedule: Q04DX002 (ip), vehicle: saline with Tween-80 89 % of control

C=C1C[C@](C(N)=O)(C2OC3OC(C)(C)OC3C2OCc2ccccc2)OC1=O (some centres undefined)
inactive: dose: 25.0 mg/kg/injection, schedule: Q01DX005 (ip), vehicle: saline with Tween-80 103 % of control | [10] 100 % of control | dose: 100.0 mg/kg/injection, schedule: Q01DX001 (ip), vehicle: saline with Tween-80 96 % of control | [11] 92 % of control

COC(=O)CC[C@@H](C)C1CC[C@H]2[C@@H]3CC[C@H]4C=C(O)C(=O)C[C@]4(C)[C@H]3C[C@H](OC(C)=O)[C@]12C (some centres undefined)
inactive: [12] 102 % of control | [13] 101 % of control | [14] 108 % of control

CCOC(=O)CCC1(C(=O)OC)C(=O)CCCCC/C=C/1C(=O)OC (centres undefined)
inactive: [15] 113 % of control | [16] 104 % of control | dose: 400.0 mg/kg/injection, schedule: Q01DX009 (ip), vehicle: saline with Tween-80 104 % of control

c1ccc([P+](COC[P+](c2ccccc2)(c2ccccc2)c2ccccc2)(c2ccccc2)c2ccccc2)cc1
inactive: dose: 6.25 mg/kg/injection, schedule: Q01DX009 (ip), vehicle: Klucel (hydroxypropylcellulose) (HPC) 92 % of control | dose: 12.5 mg/kg/injection, schedule: Q01DX009 (ip), vehicle: Klucel (hydroxypropylcellulose) (HPC) 94 % of control

Oc1ccccc1C=NCCSSCCN=Cc1ccccc1O
inactive: dose: 60.0 mg/kg/injection, schedule: Q01DX005 (ip), vehicle: Klucel (hydroxypropylcellulose) (HPC) 106 % of control | dose: 120.0 mg/kg/injection, schedule: Q01DX005 (ip), vehicle: Klucel (hydroxypropylcellulose) (HPC) 101 % of control | dose: 240.0 mg/kg/injection, schedule: Q01DX005 (ip), vehicle: Klucel (hydroxypropylcellulose) (HPC) 108 % of control

O=C(/C=N/Nc1ccccc1)Nc1ccccc1C(=O)O
inactive: dose: 50.0 mg/kg/injection, schedule: Q01DX005 (ip), vehicle: Klucel (hydroxypropylcellulose) (HPC) 102 % of control | dose: 100.0 mg/kg/injection, schedule: Q01DX005 (ip), vehicle: Klucel (hydroxypropylcellulose) (HPC) 105 % of control | dose: 200.0 mg/kg/injection, schedule: Q01DX005 (ip), vehicle: Klucel (hydroxypropylcellulose) (HPC) 93 % of control

COC(=O)CC1C2(C)CC34OC5(C)OC6(C7CC(=O)OC(c8ccoc8)C7(C)CCC6(O5)C13C)C(OC(=O)C(C)C)C4(O)C2OC(=O)C(C)C (centres undefined)
inactive: dose: 0.37 mg/kg/injection, schedule: Q01DX009 (ip), vehicle: Klucel (hydroxypropylcellulose) (HPC) 109 % of control | dose: 0.75 mg/kg/injection, schedule: Q01DX009 (ip), vehicle: Klucel (hydroxypropylcellulose) (HPC) 109 % of control | dose: 1.5 mg/kg/injection, schedule: Q01DX009 (ip), vehicle: Klucel (hydroxypropylcellulose) (HPC) 102 % of control | dose: 3.0 mg/kg/injection, schedule: Q01DX009 (ip), vehicle: Klucel (hydroxypropylcellulose) (HPC) 101 % of control

O=C(OC(c1ccccc1)(C(F)(F)F)C(F)(F)F)c1ccc(Cl)cc1
inactive: [12] 92 % of control | [13] 98 % of control | [14] 97 % of control

O=C1c2ccccc2-c2c1c1ccccc1c(=O)n2-c1cccnc1
inactive: [10] 111 % of control | [11] 101 % of control | [17] 97 % of control

CCOP(=O)(Cc1cc(=O)oc2cc(OC)ccc12)OCC
inactive: [1] 101 % of control | [2] 100 % of control

O=C1CCCC2=C1C1(OC3C=CC=CN23)C(=O)c2ccccc2C1=O (centres undefined)
inactive: [10] 103 % of control | [11] 97 % of control | [17] 92 % of control

CN(Cc1ccccc1)C(=O)Nc1c(Cl)cccc1Cl
inactive: [18] 103 % of control | [19] 99 % of control | [20] 95 % of control

CSC(=S)N/N=C/c1cccn1C
inactive: [21] 100 % of control | [15] 91 % of control | [16] 115 % of control

CCOC(=O)CON1C(=O)CCC1=O
inactive: [3] 102 % of control | [4] 102 % of control | [5] 100 % of control | [6] 105 % of control

COC(=O)C1C(C(=O)OC)C2N(c3ccccc3)C=NN2C1C(=O)c1ccccc1 (centres undefined)
inactive: [10] 96 % of control | [11] 103 % of control | [17] 93 % of control

COc1cc2c(c(OC)c1OC)CCC1C(=O)NN=C21 (centres undefined)
inactive: dose: 12.5 mg/kg/injection, schedule: Q04DX003 (ip), vehicle: Klucel (hydroxypropylcellulose) (HPC) 111 % of control | dose: 25.0 mg/kg/injection, schedule: Q04DX003 (ip), vehicle: Klucel (hydroxypropylcellulose) (HPC) 104 % of control | dose: 50.0 mg/kg/injection, schedule: Q04DX003 (ip), vehicle: Klucel (hydroxypropylcellulose) (HPC) 111 % of control

CCc1cccc2c3c([nH]c12)C(CC)(CC(=O)O)OCC3 (centres undefined)
inactive: [7] 102 % of control | [8] 110 % of control | [9] 107 % of control

CNC(=O)C1CCC(=O)N1Cc1c[nH]c2ccccc12 (centres undefined)
inactive: [18] 94 % of control | [19] 94 % of control | [20] 92 % of control

Cc1cc(C)cc(C(=O)NC(c2ccncc2)C2N=C(c3ccccc3)OC2=O)c1 (centres undefined)
inactive: [18] 98 % of control | [19] 94 % of control | [20] 94 % of control

O=C1CCCCC1N1C(=O)c2ccccc2C1=O (centres undefined)
inactive: [12] 101 % of control | [13] 97 % of control | [14] 97 % of control

CNC(=O)Nc1nccs1
inactive: [21] 105 % of control | [15] 96 % of control | [16] 97 % of control

CCC1=NO[C@@H](C)[C@H]1C(=O)OCc1ccccc1
inactive: [18] 106 % of control | [19] 100 % of control | [20] 97 % of control

O=C(O)c1ccc(NC(C[N+](=O)[O-])C(F)(F)C(F)(F)C(F)(F)F)cc1 (centres undefined)
inactive: dose: 100.0 mg/kg/injection, schedule: Q01DX001 (ip), vehicle: saline sonified 100 % of control | dose: 200.0 mg/kg/injection, schedule: Q01DX001 (ip), vehicle: saline sonified 100 % of control | dose: 400.0 mg/kg/injection, schedule: Q01DX001 (ip), vehicle: saline sonified 100 % of control
